Values quoted from earlier work in patent EP3473244A1, “CONTROLLED RELEASE ORAL TAMSULOSIN HYDROCHLORIDE” (Veru Inc., priority 2017, dated 2019).

Conditions: reported value used to set PK sampling times

## CCOc1ccccc1OCCN[C@H](C)Cc1ccc(OC)c(S(N)(=O)=O)c1 [Tamsulosin]
  T ½: 5 h
